Data on 30 compounds can be found in patent US9834550B2, “Pyridopyrimidinone compounds for modulating the catalytic activity of histone lysine demethylases (KDMs)” (Dong-A Socio Holdings Co., Ltd., priority 2014, dated 2017).

For the test, the target named is T1, Recombinant human JARID1B/KDM5B (Homo sapiens, UniProt Q9UGL1).
T1 construct: purchased Active Motif 31432; host or cells: Sf9 insect cells
Nature of the test: LANCE Ultra TR-FRET demethylase assay with FLAG-tagged JARID1B. The test is classed as biochemical. To be noted: 100 nM compound; 500 nM biotinylated H3K4me3 peptide substrate. The method, boiled down:
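Sf9-expressed N-FLAG full-length JARID1B (10–30 nM) preincubated 5 min with compound at 20, 1 or 0.1 uM (1% DMSO), then 500 nM biotin-H3K4me3 peptide, 500 uM 2-OG, 25 uM Fe(II), 2 mM ascorbate added; 30 min at room temperature in Hepes pH 7.5. H3K4me2/1 product read by TR-FRET 665/590 ratio.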
On the technique in general: Time-resolved FRET reads energy transfer from a long-lived donor to a nearby acceptor.

T1 sequence (Q9UGL1 whole entry): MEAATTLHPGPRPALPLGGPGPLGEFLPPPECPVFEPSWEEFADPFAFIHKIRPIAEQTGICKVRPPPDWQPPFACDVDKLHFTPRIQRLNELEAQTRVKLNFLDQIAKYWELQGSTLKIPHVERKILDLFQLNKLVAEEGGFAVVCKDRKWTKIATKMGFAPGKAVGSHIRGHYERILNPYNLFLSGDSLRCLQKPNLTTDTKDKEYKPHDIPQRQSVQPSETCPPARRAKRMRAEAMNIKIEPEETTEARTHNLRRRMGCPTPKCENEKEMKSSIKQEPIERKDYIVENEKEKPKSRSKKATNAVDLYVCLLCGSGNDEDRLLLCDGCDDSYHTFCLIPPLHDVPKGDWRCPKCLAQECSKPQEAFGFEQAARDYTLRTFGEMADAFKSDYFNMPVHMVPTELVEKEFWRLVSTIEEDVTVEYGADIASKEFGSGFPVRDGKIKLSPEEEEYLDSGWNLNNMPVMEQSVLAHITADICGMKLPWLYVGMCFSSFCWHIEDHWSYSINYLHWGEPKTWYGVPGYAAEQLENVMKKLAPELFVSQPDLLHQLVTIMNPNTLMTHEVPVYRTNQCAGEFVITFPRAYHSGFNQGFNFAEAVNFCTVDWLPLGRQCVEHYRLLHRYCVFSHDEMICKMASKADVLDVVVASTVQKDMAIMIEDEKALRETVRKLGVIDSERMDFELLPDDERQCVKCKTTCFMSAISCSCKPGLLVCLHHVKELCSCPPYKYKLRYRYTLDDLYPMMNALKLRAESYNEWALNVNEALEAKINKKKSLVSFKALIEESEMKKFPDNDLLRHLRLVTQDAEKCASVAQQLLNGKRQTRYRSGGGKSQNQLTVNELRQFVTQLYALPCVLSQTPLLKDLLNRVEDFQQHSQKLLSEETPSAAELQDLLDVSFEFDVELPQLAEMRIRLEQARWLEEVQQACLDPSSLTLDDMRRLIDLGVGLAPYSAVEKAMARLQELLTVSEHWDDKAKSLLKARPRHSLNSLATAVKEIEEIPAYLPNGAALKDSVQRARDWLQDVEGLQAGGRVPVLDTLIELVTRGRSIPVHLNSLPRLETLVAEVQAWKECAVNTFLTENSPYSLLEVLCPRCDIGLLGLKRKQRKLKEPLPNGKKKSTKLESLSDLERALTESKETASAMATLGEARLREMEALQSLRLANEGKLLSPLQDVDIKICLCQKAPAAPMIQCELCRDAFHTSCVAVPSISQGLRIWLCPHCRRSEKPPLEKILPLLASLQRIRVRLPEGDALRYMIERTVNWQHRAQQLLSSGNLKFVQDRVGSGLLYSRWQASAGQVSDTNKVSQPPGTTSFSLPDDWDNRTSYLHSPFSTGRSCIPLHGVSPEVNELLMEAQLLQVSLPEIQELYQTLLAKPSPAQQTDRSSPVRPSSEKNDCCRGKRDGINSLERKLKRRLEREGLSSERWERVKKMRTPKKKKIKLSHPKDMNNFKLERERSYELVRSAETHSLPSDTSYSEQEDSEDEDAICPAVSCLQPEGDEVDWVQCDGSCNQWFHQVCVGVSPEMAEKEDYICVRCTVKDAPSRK

Broadly, the inhibition is how much of the control response was suppressed. Take `CN1CCC(CNCc2nccc3c(=O)[nH]c(COCc4ccccc4)nc23)CC1` [Example 203, 2-((benzyloxy)methyl)-8-((((1-methylpiperidin-4-yl)methyl)amino)methyl)pyrido[3,4-d]pyrimidin-4(3H)-one]: the inhibition at 0.1 µM is more than 50%.

For the compound `O=c1[nH]c(COCc2ccccc2)nc2c(CNC[C@H]3CCNC3)nccc12` [Example 204, (S)-2-((benzyloxy)methyl)-8-(((pyrrolidin-3-ylmethyl)amino)methyl)pyrido[3,4-d]pyrimidin-4(3H)-one], the inhibition at 0.1 µM is 20 to 50%. The same measure for `CN1CCC(CNCc2nccc3c(=O)[nH]c(COCc4ccccc4)nc23)C1` (stereo not drawn) [Example 205, 2-((benzyloxy)methyl)-8-((((1-methylpyrrolidin-3-yl)methyl)amino)methyl)pyrido[3,4-d]pyrimidin-4(3H)-one]: 20 to 50%. On to `O=c1[nH]c(COCc2cccc(Cl)c2)nc2c(CNCC3CCNCC3)nccc12` [Example 206, 2-(((3-chlorobenzyl)oxy)methyl)-8-(((piperidin-4-ylmethyl)amino)methyl)pyrido[3,4-d]pyrimidin-4(3H)-one], for which the inhibition at 0.1 µM was more than 50%. `CN1CCC(CNCc2nccc3c(=O)[nH]c(COCc4cccc(Cl)c4)nc23)CC1` [Example 207, 2-(((3-chlorobenzyl)oxy)methyl)-8-((((1-methylpiperidin-4-yl)methyl)amino)methyl)pyrido[3,4-d]pyrimidin-4(3H)-one]: the inhibition at 0.1 µM was more than 50%. To `O=c1[nH]c(COCc2cccc(Cl)c2)nc2c(CNC[C@H]3CCNC3)nccc12` [Example 208, (S)-2-(((3-chlorobenzyl)oxy)methyl)-8-(((pyrrolidin-3-ylmethyl)amino)methyl)pyrido[3,4-d]pyrimidin-4(3H)-one] belongs more than 50%; to `O=c1[nH]c(COCc2ccccc2Cl)nc2c(CNCC3CCNCC3)nccc12` [Example 209, 2-(((2-chlorobenzyl)oxy)methyl)-8-(((piperidin-4-ylmethyl)amino)methyl)pyrido[3,4-d]pyrimidin-4(3H)-one], more than 50%. As for `CN1CCC(CNCc2nccc3c(=O)[nH]c(COCc4ccccc4Cl)nc23)CC1` [Example 210, 2-(((2-chlorobenzyl)oxy)methyl)-8-((((1-methylpiperidin-4-yl)methyl)amino)methyl)pyrido[3,4-d]pyrimidin-4(3H)-one], the inhibition at 0.1 µM was more than 50%. Regarding `CC(Oc1ccc(Cc2ccccc2)cc1)c1nc2c(CNCC3CCN(C)CC3)nccc2c(=O)[nH]1` (stereo not drawn) [Example 211, 2-(1-(4-benzylphenoxy)ethyl)-8-((((1-methylpiperidin-4-yl)methyl)amino)methyl)pyrido[3,4-d]pyrimidin-4(3H)-one], the inhibition at 0.1 µM was less than 20%. The same measure for `CC(Oc1ccc(Cc2ccccc2)cc1)c1nc2c(CNCC3CCNCC3)nccc2c(=O)[nH]1` (stereo not drawn) [Example 212, 2-(1-(4-benzylphenoxy)ethyl)-8-(((piperidin-4-ylmethyl)amino)methyl)pyrido[3,4-d]pyrimidin-4(3H)-one]: 20 to 50%; for `CC(Oc1ccc(Cc2ccccc2)cc1)c1nc2c(CNC[C@H]3CCNC3)nccc2c(=O)[nH]1` (stereo partly drawn) [Example 213, 2-(1-(4-benzylphenoxy)ethyl)-8-(((((S)-pyrrolidin-3-yl)methyl)amino)methyl)pyrido[3,4-d]pyrimidin-4(3H)-one]: 20 to 50%; for `CC(Oc1ccc(Cc2ccccc2)cc1)c1nc2c(CNCC3CCN(C)C3)nccc2c(=O)[nH]1` (stereo not drawn) [Example 214, 2-(1-(4-benzylphenoxy)ethyl)-8-((((1-methylpyrrolidin-3-yl)methyl)amino)methyl)pyrido[3,4-d]pyrimidin-4(3H)-one]: 20 to 50%. Regarding `C[C@@H](Oc1ccc(Cc2ccccc2)cc1)c1nc2c(CNCC3CCNCC3)nccc2c(=O)[nH]1` [Example 215, (R)-2-(1-(4-benzylphenoxy)ethyl)-8-(((piperidin-4-ylmethyl)amino)methyl)pyrido[3,4-d]pyrimidin-4(3H)-one], the inhibition at 0.1 µM is more than 50%. For `C[C@@H](Oc1ccc(Cc2ccccc2)cc1)c1nc2c(CNCC3CCN(C)CC3)nccc2c(=O)[nH]1` [Example 216, (R)-2-(1-(4-benzylphenoxy)ethyl)-8-((((1-methylpiperidin-4-yl)methyl)amino)methyl)pyrido[3,4-d]pyrimidin-4(3H)-one], the inhibition at 0.1 µM was more than 50%. Turning to `C[C@@H](Oc1ccc(F)c(Cl)c1)c1nc2c(CNCC3CCNCC3)nccc2c(=O)[nH]1` [Example 217, (R)-2-(1-(3-chloro-4-fluorophenoxy)ethyl)-8-(((piperidin-4-ylmethyl)amino)methyl)pyrido[3,4-d]pyrimidin-4(3H)-one], the inhibition at 0.1 µM was less than 20%. The same measure for `C[C@@H](Oc1ccc(F)c(Cl)c1)c1nc2c(CNCC3CCN(C)CC3)nccc2c(=O)[nH]1` [Example 218, (R)-2-(1-(3-chloro-4-fluorophenoxy)ethyl)-8-((((1-methylpiperidin-4-yl)methyl)amino)methyl)pyrido[3,4-d]pyrimidin-4(3H)-one]: 20 to 50%; for `C[C@H](Oc1ccc(F)c(Cl)c1)c1nc2c(CNCC3CCNCC3)nccc2c(=O)[nH]1` [Example 219, (S)-2-(1-(3-chloro-4-fluorophenoxy)ethyl)-8-(((piperidin-4-ylmethyl)amino)methyl)pyrido[3,4-d]pyrimidin-4(3H)-one]: 20 to 50%. As for `C[C@H](Oc1ccc(F)c(Cl)c1)c1nc2c(CNCC3CCN(C)CC3)nccc2c(=O)[nH]1` [Example 220, (S)-2-(1-(3-chloro-4-fluorophenoxy)ethyl)-8-((((1-methylpiperidin-4-yl)methyl)amino)methyl)pyrido[3,4-d]pyrimidin-4(3H)-one], the inhibition at 0.1 µM was more than 50%. Regarding `CCN(CCN(C)C)C(=O)CNCc1nccc2c(=O)[nH]c(COc3ccc(F)c(Cl)c3)nc12` [Example 221, 2-(((2-((3-chloro-4-fluorophenoxy)methyl)-4-oxo-3,4-dihydropyrido[3,4-d]pyrimidin-8-yl)methyl)amino)-N-(2-(dimethylamino)ethyl)-N-ethylacetamide], the inhibition at 0.1 µM is more than 50%.

For `CCCCN(CC)C(=O)CNCc1nccc2c(=O)[nH]c(COc3ccc(F)c(Cl)c3)nc12` [Example 222, N-butyl-2-(((2-((3-chloro-4-fluorophenoxy)methyl)-4-oxo-3,4-dihydropyrido[3,4-d]pyrimidin-8-yl)methyl)amino)-N-ethylacetamide], the inhibition at 0.1 µM lay within 20 to 50%. The same measure for `O=C(CNCc1nccc2c(=O)[nH]c(COc3ccc(F)c(Cl)c3)nc12)N1CCCC1` [Example 223, 2-((3-chloro-4-fluorophenoxy)methyl)-8-(((2-oxo-2-(pyrrolidin-1-yl)ethyl)amino)methyl)pyrido[3,4-d]pyrimidin-4(3H)-one]: 20 to 50%. The same measure for `O=C(CNCc1nccc2c(=O)[nH]c(COc3ccc(F)c(Cl)c3)nc12)N1CCCCC1` [Example 224, 2-((3-chloro-4-fluorophenoxy)methyl)-8-(((2-oxo-2-(piperidin-1-yl)ethyl)amino)methyl)pyrido[3,4-d]pyrimidin-4(3H)-one]: 20 to 50%; for `O=C(CNCc1nccc2c(=O)[nH]c(COc3ccc(F)c(Cl)c3)nc12)N1CCOCC1` [Example 225, 2-((3-chloro-4-fluorophenoxy)methyl)-8-(((2-morpholino-2-oxoethyl)amino)methyl)pyrido[3,4-d]pyrimidin-4(3H)-one]: 20 to 50%. Consider `CN1CCN(C(=O)CNCc2nccc3c(=O)[nH]c(COc4ccc(F)c(Cl)c4)nc23)CC1` [Example 226, 2-((3-chloro-4-fluorophenoxy)methyl)-8-(((2-(4-methylpiperazin-1-yl)-2-oxoethyl)amino)methyl)pyrido[3,4-d]pyrimidin-4(3H)-one], for which the inhibition at 0.1 µM was more than 50%.

Turning to `CN1CCC(CNC(=O)CNCc2nccc3c(=O)[nH]c(COc4ccc(F)c(Cl)c4)nc23)C1` (stereo not drawn) [Example 227, 2-(((2-((3-chloro-4-fluorophenoxy)methyl)-4-oxo-3,4-dihydropyrido[3,4-d]pyrimidin-8-yl)methyl)amino)-N-((1-methylpyrrolidin-3-yl)methyl)acetamide], the inhibition at 0.1 µM was in the range of 20 to 50%. On to `N[C@@H]1CCN(C(=O)CNCc2nccc3c(=O)[nH]c(COc4ccc(F)c(Cl)c4)nc23)C1` [Example 228, (R)-8-(((2-(3-aminopyrrolidin-1-yl)-2-oxoethyl)amino)methyl)-2-((3-chloro-4-fluorophenoxy)methyl)pyrido[3,4-d]pyrimidin-4(3H)-one], for which the inhibition at 0.1 µM was more than 50%. To `N[C@H]1CCN(C(=O)CNCc2nccc3c(=O)[nH]c(COc4ccc(F)c(Cl)c4)nc23)C1` [Example 229, (S)-8-(((2-(3-aminopyrrolidin-1-yl)-2-oxoethyl)amino)methyl)-2-((3-chloro-4-fluorophenoxy)methyl)pyrido[3,4-d]pyrimidin-4(3H)-one] belongs more than 50%; to `O=C(CNCc1nccc2c(=O)[nH]c(COc3ccc(F)c(Cl)c3)nc12)N[C@@H]1CCCNC1` [Example 230, (R)-2-(((2-((3-chloro-4-fluorophenoxy)methyl)-4-oxo-3,4-dihydropyrido[3,4-d]pyrimidin-8-yl)methyl)amino)-N-(piperidin-3-yl)acetamide], more than 50%.

Take `O=C(CNCc1nccc2c(=O)[nH]c(COc3ccc(F)c(Cl)c3)nc12)N[C@H]1CCCNC1` [Example 231, (S)-2-(((2-((3-chloro-4-fluorophenoxy)methyl)-4-oxo-3,4-dihydropyrido[3,4-d]pyrimidin-8-yl)methyl)amino)-N-(piperidin-3-yl)acetamide]: the inhibition at 0.1 µM is more than 50%. Take `O=C(CNCc1nccc2c(=O)[nH]c(COc3ccc(F)c(Cl)c3)nc12)NC1CCN(Cc2ccccc2)C1` (stereo not drawn) [Example 232, N-(1-benzylpyrrolidin-3-yl)-2-(((2-((3-chloro-4-fluorophenoxy)methyl)-4-oxo-3,4-dihydropyrido[3,4-d]pyrimidin-8-yl)methyl)amino)acetamide]: the inhibition at 0.1 µM is more than 50%.
